Test systems include HCT-15 colon; OVCAR-4 ovarian; MOLT-4 leukemia; SF-295 CNS; HCT-116 colon; A549 NSCLC; SK-MEL-2 melanoma; XF 498 CNS; HCC-2998 colon; PC-3 prostate.
Holding throughout (test): growth of human tumour cells (NCI), 48 h

From PubChem BioAssay (NCI) come the findings set out here.

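Where inhibition never reached the appropriate level, the endpoint shown equals the highest concentration tested. Otherwise, values were interpolated linearly from a five-concentration, 48-hour dose response in 96-well plates. TGI denotes the concentration required for complete inhibition of growth.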 *1 amine or outer side, *2 acyl side, *3 side chain or, on linkers, in order; H or OH if unused. Where a SMILES comes first, the peptide text is derived from it. Bridges are numbered along the chain shown (N, C = ends). Roman numbers before positions name the chains, in order. [ ]: non-standard residue; d: D form. Actinocin(9to1) = Cc1c2oc3c(C)ccc(C(=O)[*:1])c3nc-2c(C(=O)[*:2])c(N)c1=O; NMeV = CN[CH](C(=O)O)C(C)C; Sar = CNCC(=O)O Where only a bound is given, the exact number is not on record here.

On to `CN(C)CCSC(=Nc1ccccc1)N1CCCCC1`, for which the TGI in the assay with HCT-15 colon is 30 µM; in the assay on OVCAR-4 ovarian, 40.2 µM; in the assay with MOLT-4 leukemia, 58.7 µM; in the assay with SF-295 CNS, over 100 µM; in the assay on HCT-116 colon, 33.8 µM; in the assay with A549 NSCLC, over 100 µM. The TGI in the assay with SK-MEL-2 melanoma is 31.3 µM; in the assay on XF 498 CNS it was 30 µM.
On to `Cc1cccc(C2=NC(C)(C)C(C)(C)N=C2c2cccc(C)n2)n1`, for which the TGI with HCT-15 colon, in the assay with OVCAR-4 ovarian, in the assay on SF-295 CNS, in the assay on HCC-2998 colon, in the assay with HCT-116 colon and in the assay on A549 NSCLC was over 100 µM throughout. In addition, the TGI with SK-MEL-2 melanoma and in the assay with XF 498 CNS was over 100 µM each time.
On to `O=C(OCc1ccccc1)C1(N2CN(C3(C(=O)OCc4ccccc4)CCCC3)CN(C3(C(=O)OCc4ccccc4)CCCC3)C2)CCCC1`, for which the TGI in the assay on PC-3 prostate, with HCT-15 colon, in the assay on OVCAR-4 ovarian, with MOLT-4 leukemia, in the assay with SF-295 CNS and in the assay on HCC-2998 colon was over 10 µM each time. Besides, the TGI in the assay with HCT-116 colon, in the assay with A549 NSCLC and with SK-MEL-2 melanoma was over 10 µM each time.
For `O=C(CCCCCCCCC(=O)N1C(=O)CC(=O)N(c2cccc(Cl)c2)C1=S)N1C(=O)CC(=O)N(c2cccc(Cl)c2)C1=S`, the TGI with PC-3 prostate was 91.2 µM; in the assay with HCT-15 colon, over 100 µM; in the assay on OVCAR-4 ovarian, over 100 µM; in the assay with MOLT-4 leukemia, 70.6 µM; with SF-295 CNS, over 100 µM; in the assay with HCC-2998 colon, over 100 µM. Further, the TGI with HCT-116 colon, with A549 NSCLC and in the assay on SK-MEL-2 melanoma was over 100 µM in each case.
Turning to `COc1ccc(-c2c(N)n(-c3cccc(C(=O)O)c3)c(=O)c3cc([N+](=O)[O-])ccc23)cc1`, the TGI in the assay with PC-3 prostate, with HCT-15 colon, with OVCAR-4 ovarian, with MOLT-4 leukemia, in the assay on SF-295 CNS and in the assay on HCC-2998 colon was over 100 µM throughout. Also, the TGI with HCT-116 colon, in the assay on A549 NSCLC and in the assay on SK-MEL-2 melanoma was over 100 µM in each case.
In the case of `CN(C)Cc1cc(O)c(O)c(CN(C)C)c1`, the TGI was over 100 µM in the assay on PC-3 prostate; over 100 µM in the assay on HCT-15 colon; over 100 µM with OVCAR-4 ovarian; over 100 µM with MOLT-4 leukemia; over 100 µM in the assay with SF-295 CNS; 81.8 µM in the assay on HCC-2998 colon. In addition, the TGI in the assay on HCT-116 colon, in the assay on A549 NSCLC and with SK-MEL-2 melanoma was over 100 µM each time.
As for `Cc1cc(-c2nc3ccccc3s2)ccc1NC(=O)[C@H](C)N`, the TGI stood at 26.7 µM with PC-3 prostate; 37.1 µM in the assay on HCT-15 colon; 26.2 µM with OVCAR-4 ovarian; 37.8 µM in the assay on MOLT-4 leukemia; 29.3 µM in the assay with SF-295 CNS; 23.9 µM with HCC-2998 colon. For the same compound, the values for the TGI in the assay with HCT-116 colon, with A549 NSCLC and with SK-MEL-2 melanoma were 23.4 µM, 27.3 µM and 34.3 µM, respectively.
For `C=C1C(=O)OCC2C(C(=O)O)=CC3C(C)C(C)=CC123` (stereo not drawn), the TGI with HCT-15 colon is 43.8 µM; with OVCAR-4 ovarian it was 20.6 µM; in the assay with MOLT-4 leukemia it was 29.6 µM; in the assay with SF-295 CNS, 49.1 µM; with HCC-2998 colon, 29 µM; in the assay on HCT-116 colon, 35.5 µM. The TGI in the assay on A549 NSCLC came to 77.1 µM; in the assay on SK-MEL-2 melanoma, 15.1 µM; with XF 498 CNS, 24.8 µM.
`O=c1c(C=Nc2ccc([N+](=O)[O-])cc2)c(O)n(-c2ccccc2)c(=O)n1-c1ccccc1`: the TGI with PC-3 prostate, in the assay on HCT-15 colon, in the assay on OVCAR-4 ovarian, in the assay with MOLT-4 leukemia, in the assay on SF-295 CNS and with HCC-2998 colon was over 100 µM throughout. Also, the TGI in the assay on HCT-116 colon, in the assay on A549 NSCLC and in the assay on SK-MEL-2 melanoma was over 100 µM each time.
For the compound `CC(C)(C)C1(COC(=O)c2ccc(N)cc2)COC1`, the TGI with PC-3 prostate, in the assay with HCT-15 colon, in the assay with OVCAR-4 ovarian, in the assay with MOLT-4 leukemia, with SF-295 CNS and with HCC-2998 colon was over 100 µM each time. The TGI in the assay with HCT-116 colon, in the assay on A549 NSCLC and with SK-MEL-2 melanoma was over 100 µM throughout.
On to `Cc1cccc(NC(=O)C(=O)C(C(=O)c2ccccc2F)C2OC(=O)c3ccccc32)c1Cl` (stereo not drawn), for which the TGI in the assay on HCT-15 colon is 73.3 µM; in the assay on OVCAR-4 ovarian it was over 100 µM; in the assay with MOLT-4 leukemia, over 100 µM; in the assay on SF-295 CNS, over 100 µM; with HCC-2998 colon, 43.7 µM; with HCT-116 colon it was 45.3 µM. The TGI in the assay with A549 NSCLC, in the assay on SK-MEL-2 melanoma and in the assay with XF 498 CNS was over 100 µM throughout.
On to `O=C1COc2ccc([N+](=O)[O-])cc2C(=O)C1`, for which the TGI with PC-3 prostate, in the assay on HCT-15 colon, with OVCAR-4 ovarian, in the assay with MOLT-4 leukemia, in the assay with SF-295 CNS and with HCC-2998 colon was over 10 µM throughout. The TGI in the assay on HCT-116 colon, in the assay with A549 NSCLC and in the assay with SK-MEL-2 melanoma was over 10 µM throughout.
For the compound `CCCCOP1(=O)C=C(C)C(=C(Cl)Cl)C(C)=C1` (stereo not drawn), the TGI in the assay with HCT-15 colon was 40.8 µM; in the assay on OVCAR-4 ovarian, over 91.1 µM; in the assay with MOLT-4 leukemia, over 48.2 µM; in the assay on SF-295 CNS, 25.9 µM; with HCC-2998 colon, 52.3 µM; in the assay with HCT-116 colon, 6.29 µM. Moreover, the values for the TGI in the assay on A549 NSCLC, with SK-MEL-2 melanoma and in the assay on XF 498 CNS were over 41.5 µM, 5.11 µM and 46.2 µM, respectively.
As to `CSC1=C(C#N)C(=O)N(c2ccc(C)cc2)C(=S)C1C#N` (stereo not drawn), the TGI with PC-3 prostate, with HCT-15 colon, in the assay on OVCAR-4 ovarian, in the assay on MOLT-4 leukemia, in the assay with SF-295 CNS and in the assay with HCC-2998 colon was over 100 µM throughout. Moreover, the TGI with HCT-116 colon, in the assay on A549 NSCLC and with SK-MEL-2 melanoma was over 100 µM throughout.
As to `COC(OC)C1OC(CO)C(n2ccc(N)nc2=O)C1O` (stereo not drawn), the TGI in the assay with PC-3 prostate, in the assay on HCT-15 colon, in the assay with OVCAR-4 ovarian, in the assay on MOLT-4 leukemia, with SF-295 CNS and with HCC-2998 colon was over 100 µM throughout. In addition, the TGI in the assay with HCT-116 colon, in the assay on A549 NSCLC and in the assay on SK-MEL-2 melanoma was over 100 µM each time.
On to `O=C1/C(=C/c2ccccc2[N+](=O)[O-])N=C(c2ccccc2)N1C1Nc2cc3c(cc2S1)NC(N1C(=O)/C(=C/c2ccccc2[N+](=O)[O-])N=C1c1ccccc1)S3` (stereo not drawn), for which the TGI is over 100 µM in the assay on PC-3 prostate; over 100 µM with HCT-15 colon; over 100 µM in the assay on OVCAR-4 ovarian; over 100 µM in the assay on MOLT-4 leukemia; over 100 µM in the assay on SF-295 CNS; 38.1 µM in the assay with HCC-2998 colon. The TGI in the assay with HCT-116 colon, in the assay on A549 NSCLC and in the assay on SK-MEL-2 melanoma was over 100 µM each time.
Regarding `C=C(C)C(=O)[C@@]12C(=O)[C@@H](C)CC[C@H]1[C@H](C)C[C@@H]2C=C(C)C`, the TGI with PC-3 prostate is 59.4 µM; in the assay on HCT-15 colon it was 73.5 µM; with OVCAR-4 ovarian it was over 100 µM; with MOLT-4 leukemia, 65.7 µM; with SF-295 CNS it was over 100 µM; with HCC-2998 colon, 28 µM. The TGI was 42.6 µM in the assay with HCT-116 colon, over 100 µM in the assay on A549 NSCLC and 26.7 µM with SK-MEL-2 melanoma.
For the compound `C=C(CC[C@@H](C(=O)O)[C@H]1[C@H](O)C[C@@]2(C)C3=CC[C@@H](C(=C)C)[C@](C)(CCC(=O)O)C3=CC[C@]12C)C(C)C`, the TGI in the assay on PC-3 prostate amounted to 34.3 µM; in the assay with HCT-15 colon, 31.4 µM; with OVCAR-4 ovarian it was 36.3 µM; in the assay with MOLT-4 leukemia it was 64.4 µM; in the assay on SF-295 CNS, 31.4 µM; in the assay on HCC-2998 colon it was 32.4 µM. The TGI amounted to 30.7 µM with HCT-116 colon, 35.1 µM with A549 NSCLC and 34.3 µM in the assay with SK-MEL-2 melanoma.
In the case of `CN(NC(=O)CCCl)C1=NCCCCN1`, the TGI in the assay with PC-3 prostate, in the assay with HCT-15 colon, in the assay on OVCAR-4 ovarian, with MOLT-4 leukemia, in the assay on SF-295 CNS and in the assay on HCC-2998 colon was over 100 µM throughout. For the same compound, the TGI in the assay on HCT-116 colon, in the assay with A549 NSCLC and with SK-MEL-2 melanoma was over 100 µM in each case.
For `Cc1c2oc3c(C)ccc(C(=O)NC4C(=O)NC(C(C)O)C(=O)N5CCCC5C(=O)N(C)CC(=O)N(C)C(C(C)C)C(=O)OC4C)c3nc-2c(C(=O)NC2C(=O)NC(C(C)O)C(=O)N3CCCC3C(=O)N(C)CC(=O)N(C)C(C(C)C)C(=O)OC2C)c(N)c1=O` (stereo not drawn) (I: TTP[Sar][NMeV] / II: TTP[Sar][NMeV]; ester I:1-I:C, II:1-II:C; linker I:N-II:N via Actinocin(9to1); configuration not given here), the TGI is over 100 µM with PC-3 prostate; over 100 µM in the assay with HCT-15 colon; over 63.3 µM in the assay on OVCAR-4 ovarian; 0.598 µM in the assay on MOLT-4 leukemia; over 100 µM with SF-295 CNS; over 30.3 µM in the assay with HCC-2998 colon. Further, the results for the TGI with HCT-116 colon, in the assay on A549 NSCLC and in the assay with SK-MEL-2 melanoma were over 100 µM, 32.1 µM and 1.03 µM, respectively.
